PubChem BioAssay (NCI)
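How tested: cells in 96-well plates exposed to compound for 48 hours at five concentrations. Here, GI50 denotes the concentration required for 50% inhibition of growth. Definition used: TGI = concentration required for complete inhibition of growth.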

Key:
Assay in all cases: NCI-60 cell line screen, 48 h
NCI-H460 lung = tested on: NCI-H460 lung
SK-OV-3 ovarian = tested on: SK-OV-3 ovarian
TK-10 renal = tested on: TK-10 renal
HT29 colon = tested on: HT29 colon
HCC-2998 colon = tested on: HCC-2998 colon
ACHN renal = tested on: ACHN renal
NCI-H522 lung = tested on: NCI-H522 lung
M14 melanoma = tested on: M14 melanoma
OVCAR-4 ovarian = tested on: OVCAR-4 ovarian
SNB-19 CNS = tested on: SNB-19 CNS
HCT-116 colon = tested on: HCT-116 colon
COLO 205 colon = tested on: COLO 205 colon
LOX IMVI melanoma = tested on: LOX IMVI melanoma
786-0 renal = tested on: 786-0 renal
T-47D breast = tested on: T-47D breast
SF-268 CNS = tested on: SF-268 CNS
A498 renal = tested on: A498 renal
MDA-MB-231 breast = tested on: MDA-MB-231 breast
DU-145 prostate = tested on: DU-145 prostate
IGROV1 ovarian = tested on: IGROV1 ovarian
UACC-257 melanoma = tested on: UACC-257 melanoma
SW-620 colon = tested on: SW-620 colon
A549 NSCLC = tested on: A549 NSCLC
HCT-15 colon = tested on: HCT-15 colon
CAKI-1 renal = tested on: CAKI-1 renal
SR leukemia = tested on: SR leukemia
MCF7 breast = tested on: MCF7 breast
RXF 393 renal = tested on: RXF 393 renal
EKVX NSCLC = tested on: EKVX NSCLC
MDA-MB-435 = tested on: MDA-MB-435
OVCAR-3 ovarian = tested on: OVCAR-3 ovarian
RPMI-8226 leukemia = tested on: RPMI-8226 leukemia
SF-295 CNS = tested on: SF-295 CNS
NCI-H226 lung = tested on: NCI-H226 lung
SN12C renal = tested on: SN12C renal
OVCAR-5 ovarian = tested on: OVCAR-5 ovarian
MDA-MB-468 breast = tested on: MDA-MB-468 breast
K-562 leukemia = tested on: K-562 leukemia
HOP-62 NSCLC = tested on: HOP-62 NSCLC
SF-539 CNS = tested on: SF-539 CNS
UO-31 renal = tested on: UO-31 renal
BT-549 breast = tested on: BT-549 breast
MOLT-4 leukemia = tested on: MOLT-4 leukemia
NCI-H23 lung = tested on: NCI-H23 lung
HL-60(TB) leukemia = tested on: HL-60(TB) leukemia
OVCAR-8 ovarian = tested on: OVCAR-8 ovarian
NCI/ADR-RES ovarian = tested on: NCI/ADR-RES ovarian
KM12 colon = tested on: KM12 colon
SK-MEL-5 melanoma = tested on: SK-MEL-5 melanoma
PC-3 prostate = tested on: PC-3 prostate
UACC-62 melanoma = tested on: UACC-62 melanoma
SK-MEL-28 melanoma = tested on: SK-MEL-28 melanoma
U251 CNS = tested on: U251 CNS
CCRF-CEM leukemia = tested on: CCRF-CEM leukemia
SNB-75 CNS = tested on: SNB-75 CNS
HOP-92 NSCLC = tested on: HOP-92 NSCLC
MALME-3M melanoma = tested on: MALME-3M melanoma

CC[C@]12C=CCN3CC[C@@]4(c5ccc(OC)cc5N(C)[C@H]4[C@@](O)(C(=O)OC)[C@@H]1OC(=O)CCCC[P+](c1ccc(C)cc1)(c1ccc(C)cc1)c1ccc(C)cc1)[C@@H]32 showed a GI50 (NCI-H460 lung) of 0.498 µM, a TGI (NCI-H460 lung) of 1.71 µM and a GI50 (SK-OV-3 ovarian) of 0.535 µM. It also gave a TGI (SK-OV-3 ovarian) of 1.39 µM, a GI50 (TK-10 renal) of 1.04 µM and a TGI (TK-10 renal) of 2.44 µM. The GI50 (HT29 colon) was 0.268 µM, the TGI (HT29 colon) was 0.783 µM and the GI50 (HCC-2998 colon) was 0.416 µM. It also gave a TGI (HCC-2998 colon) of 1.51 µM, a GI50 (ACHN renal) of 1.8 µM and a TGI (ACHN renal) of 4.59 µM. It also gave a GI50 (NCI-H522 lung) of 0.296 µM, a TGI (NCI-H522 lung) of 1.06 µM and a GI50 (M14 melanoma) of 0.558 µM. The TGI (M14 melanoma) was 1.67 µM, the GI50 (OVCAR-4 ovarian) was 0.636 µM and the TGI (OVCAR-4 ovarian) was 3.77 µM. The GI50 (SNB-19 CNS) was 0.342 µM, the TGI (SNB-19 CNS) was 1.32 µM and the GI50 (HCT-116 colon) was 0.342 µM. It also gave a TGI (HCT-116 colon) of 1.46 µM, a GI50 (COLO 205 colon) of 0.2 µM and a TGI (COLO 205 colon) of 0.384 µM. It also gave a GI50 (LOX IMVI melanoma) of 0.541 µM, a TGI (LOX IMVI melanoma) of 1.64 µM and a GI50 (786-0 renal) of 0.902 µM. The TGI (786-0 renal) was 2.37 µM, the GI50 (T-47D breast) was 0.305 µM and the TGI (T-47D breast) was 1.96 µM. It also gave a GI50 (SF-268 CNS) of 0.692 µM, a TGI (SF-268 CNS) of 2.11 µM and a GI50 (A498 renal) of 2.09 µM. The TGI (A498 renal) was 5.24 µM, the GI50 (MDA-MB-231 breast) was 0.238 µM and the TGI (MDA-MB-231 breast) was 0.654 µM. For the same compound, the GI50 (DU-145 prostate) was 0.728 µM, the TGI (DU-145 prostate) was 4.31 µM and the GI50 (IGROV1 ovarian) was 0.351 µM. For the same compound, the TGI (IGROV1 ovarian) was 1.15 µM, the GI50 (UACC-257 melanoma) was 0.562 µM and the TGI (UACC-257 melanoma) was 1.9 µM. For the same compound, the GI50 (SW-620 colon) was 0.601 µM, the TGI (SW-620 colon) was 1.96 µM and the GI50 (A549 NSCLC) was 0.632 µM. The TGI (A549 NSCLC) was 2.76 µM, the GI50 (HCT-15 colon) was 2.02 µM and the TGI (HCT-15 colon) was 4.35 µM. The GI50 (CAKI-1 renal) was 2.85 µM, the TGI (CAKI-1 renal) was 7.15 µM and the GI50 (SR leukemia) was 0.365 µM. It also gave a TGI (SR leukemia) of 1.5 µM, a GI50 (MCF7 breast) of 0.278 µM and a TGI (MCF7 breast) of 1.15 µM. For the same compound, the GI50 (RXF 393 renal) was 0.329 µM, the TGI (RXF 393 renal) was 1.24 µM and the GI50 (EKVX NSCLC) was 0.68 µM. For the same compound, the TGI (EKVX NSCLC) was 2.59 µM, the GI50 (MDA-MB-435) was 0.472 µM and the TGI (MDA-MB-435) was 1.52 µM. The GI50 (OVCAR-3 ovarian) was 0.425 µM, the TGI (OVCAR-3 ovarian) was 1.56 µM and the GI50 (RPMI-8226 leukemia) was 0.202 µM. For the same compound, the TGI (RPMI-8226 leukemia) was 1.47 µM, the GI50 (SF-295 CNS) was 0.691 µM and the TGI (SF-295 CNS) was 1.87 µM. For the same compound, the GI50 (NCI-H226 lung) was 0.336 µM, the TGI (NCI-H226 lung) was 1.45 µM and the GI50 (SN12C renal) was 0.41 µM. For the same compound, the TGI (SN12C renal) was 1.38 µM, the GI50 (OVCAR-5 ovarian) was 0.592 µM and the TGI (OVCAR-5 ovarian) was 1.53 µM. The GI50 (MDA-MB-468 breast) was 0.15 µM, the TGI (MDA-MB-468 breast) was 0.476 µM and the GI50 (K-562 leukemia) was 0.3 µM. It also gave a TGI (K-562 leukemia) of 1.87 µM, a GI50 (HOP-62 NSCLC) of 0.731 µM and a TGI (HOP-62 NSCLC) of 2 µM. It also gave a GI50 (SF-539 CNS) of 0.588 µM, a TGI (SF-539 CNS) of 1.62 µM and a GI50 (UO-31 renal) of 2.04 µM. The TGI (UO-31 renal) was 7.11 µM, the GI50 (BT-549 breast) was 0.389 µM and the TGI (BT-549 breast) was 1.15 µM. For the same compound, the GI50 (MOLT-4 leukemia) was 0.451 µM, the TGI (MOLT-4 leukemia) was 1.78 µM and the GI50 (NCI-H23 lung) was 0.512 µM. For the same compound, the TGI (NCI-H23 lung) was 1.5 µM, the GI50 (HL-60(TB) leukemia) was 0.191 µM and the TGI (HL-60(TB) leukemia) was 0.56 µM. It also gave a GI50 (OVCAR-8 ovarian) of 1.13 µM, a TGI (OVCAR-8 ovarian) of 2.49 µM and a GI50 (NCI/ADR-RES ovarian) of 12 µM. It also gave a TGI (NCI/ADR-RES ovarian) of 34.4 µM, a GI50 (KM12 colon) of 0.431 µM and a TGI (KM12 colon) of 1.48 µM. The GI50 (SK-MEL-5 melanoma) was 0.59 µM, the TGI (SK-MEL-5 melanoma) was 1.24 µM and the GI50 (PC-3 prostate) was 0.313 µM. It also gave a TGI (PC-3 prostate) of 1.4 µM, a GI50 (UACC-62 melanoma) of 0.406 µM and a TGI (UACC-62 melanoma) of 1.18 µM. It also gave a GI50 (SK-MEL-28 melanoma) of 0.437 µM, a TGI (SK-MEL-28 melanoma) of 1.6 µM and a GI50 (U251 CNS) of 0.332 µM. For the same compound, the TGI (U251 CNS) was 1.41 µM, the GI50 (CCRF-CEM leukemia) was 0.476 µM and the TGI (CCRF-CEM leukemia) was 2.06 µM. For the same compound, the GI50 (SNB-75 CNS) was 0.242 µM, the TGI (SNB-75 CNS) was 0.854 µM and the GI50 (HOP-92 NSCLC) was 0.295 µM. It also gave a TGI (HOP-92 NSCLC) of 1.16 µM, a GI50 (MALME-3M melanoma) of 0.482 µM and a TGI (MALME-3M melanoma) of 1.1 µM.
